Laboratory results: patent US20150005281A1, “PYRIMIDINE-2,4-DIAMINE DERIVATIVES AS KINASE INHIBITORS” (Cellzome Limited, priority 2011, published 2015)
Structures can show the parent of a compound that is named as a salt.

Columns and labels:
Format in all cases: binding
JAK1 = target: T1, JAK1 (Homo sapiens, UniProt P23458); assay: Kinobeads assay with immunodetection, JAK1; conditions: for IC50: Kinobeads assay, mixed Molt4/Ramos lysate, read-out: Inhibition values (IC50) JAK1
T1 construct: endogenous in cells; host or cells: Molt4 (ATCC CRL-1582) and Ramos (ATCC CRL-1596) cells; mixed lysate 1:2
Procedure, shortened: (§1)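 Competition binding of test compounds against an immobilized aminopyrido-pyrimidine affinity matrix in mixed Molt4/Ramos lysate (1:2, 10 mg/mL protein). Incubation was 3 h in the cold with shaking; kinases captured on the beads were eluted, quantified by antibody dot blot with infrared detection, and IC50s were derived from dose-response curves.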

JAK2 = target: T2, JAK2 (Homo sapiens, UniProt O60674); assay: Kinobeads assay with immunodetection, JAK2; conditions: mixed Molt4/Ramos lysate, read-out: Inhibition values (IC50) JAK2
T2 construct: endogenous in cells; host or cells: Molt4 (ATCC CRL-1582) and Ramos (ATCC CRL-1596) cells; mixed lysate 1:2
Procedure, shortened: as §1

JAK3 = target: T3, JAK3 (Homo sapiens, UniProt P52333); assay: Kinobeads assay with immunodetection, JAK3; conditions: for IC50: Kinobeads assay, mixed Molt4/Ramos lysate, read-out: Inhibition values (IC50) JAK3
T3 construct: endogenous in cells; host or cells: Molt4 (ATCC CRL-1582) and Ramos (ATCC CRL-1596) cells; mixed lysate 1:2
T3 sequence (P52333 1-1124): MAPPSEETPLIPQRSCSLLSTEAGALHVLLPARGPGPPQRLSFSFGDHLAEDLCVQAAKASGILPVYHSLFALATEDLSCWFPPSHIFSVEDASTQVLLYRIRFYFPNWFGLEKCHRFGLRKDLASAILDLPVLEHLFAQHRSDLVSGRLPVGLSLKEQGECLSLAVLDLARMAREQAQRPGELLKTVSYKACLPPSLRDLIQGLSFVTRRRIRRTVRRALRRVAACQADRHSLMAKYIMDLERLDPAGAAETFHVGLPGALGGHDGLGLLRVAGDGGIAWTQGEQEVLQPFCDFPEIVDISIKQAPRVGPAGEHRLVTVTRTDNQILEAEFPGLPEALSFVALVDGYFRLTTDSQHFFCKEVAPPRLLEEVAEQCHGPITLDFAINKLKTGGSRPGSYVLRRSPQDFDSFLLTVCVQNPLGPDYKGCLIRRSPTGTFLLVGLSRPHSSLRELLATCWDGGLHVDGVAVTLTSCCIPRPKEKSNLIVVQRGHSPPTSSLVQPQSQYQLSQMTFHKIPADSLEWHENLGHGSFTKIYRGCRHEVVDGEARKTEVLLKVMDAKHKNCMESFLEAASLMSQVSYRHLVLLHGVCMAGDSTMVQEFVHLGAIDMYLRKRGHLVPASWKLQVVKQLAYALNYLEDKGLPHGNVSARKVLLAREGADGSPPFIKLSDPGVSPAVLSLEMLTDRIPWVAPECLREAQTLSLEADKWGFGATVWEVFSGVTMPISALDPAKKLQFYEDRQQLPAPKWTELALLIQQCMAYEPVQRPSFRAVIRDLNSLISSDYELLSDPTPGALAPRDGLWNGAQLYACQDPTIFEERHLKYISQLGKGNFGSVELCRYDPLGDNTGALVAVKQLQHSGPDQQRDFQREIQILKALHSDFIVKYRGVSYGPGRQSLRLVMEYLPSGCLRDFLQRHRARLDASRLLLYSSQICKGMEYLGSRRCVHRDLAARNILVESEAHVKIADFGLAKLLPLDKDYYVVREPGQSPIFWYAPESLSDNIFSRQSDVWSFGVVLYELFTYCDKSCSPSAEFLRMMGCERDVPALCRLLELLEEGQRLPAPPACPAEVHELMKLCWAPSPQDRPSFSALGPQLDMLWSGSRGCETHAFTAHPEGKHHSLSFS
Procedure, shortened: as §1

TYK2 = target: T4, TYK2 (Homo sapiens, UniProt P29597); assay: Kinobeads assay with immunodetection, TYK2; conditions: for IC50: Kinobeads assay, mixed Molt4/Ramos lysate, read-out: Inhibition values (IC50) Tyk2
T4 construct: endogenous in cells; host or cells: Molt4 (ATCC CRL-1582) and Ramos (ATCC CRL-1596) cells; mixed lysate 1:2
Procedure, shortened: as §1

T4 sequence (P29597 whole entry): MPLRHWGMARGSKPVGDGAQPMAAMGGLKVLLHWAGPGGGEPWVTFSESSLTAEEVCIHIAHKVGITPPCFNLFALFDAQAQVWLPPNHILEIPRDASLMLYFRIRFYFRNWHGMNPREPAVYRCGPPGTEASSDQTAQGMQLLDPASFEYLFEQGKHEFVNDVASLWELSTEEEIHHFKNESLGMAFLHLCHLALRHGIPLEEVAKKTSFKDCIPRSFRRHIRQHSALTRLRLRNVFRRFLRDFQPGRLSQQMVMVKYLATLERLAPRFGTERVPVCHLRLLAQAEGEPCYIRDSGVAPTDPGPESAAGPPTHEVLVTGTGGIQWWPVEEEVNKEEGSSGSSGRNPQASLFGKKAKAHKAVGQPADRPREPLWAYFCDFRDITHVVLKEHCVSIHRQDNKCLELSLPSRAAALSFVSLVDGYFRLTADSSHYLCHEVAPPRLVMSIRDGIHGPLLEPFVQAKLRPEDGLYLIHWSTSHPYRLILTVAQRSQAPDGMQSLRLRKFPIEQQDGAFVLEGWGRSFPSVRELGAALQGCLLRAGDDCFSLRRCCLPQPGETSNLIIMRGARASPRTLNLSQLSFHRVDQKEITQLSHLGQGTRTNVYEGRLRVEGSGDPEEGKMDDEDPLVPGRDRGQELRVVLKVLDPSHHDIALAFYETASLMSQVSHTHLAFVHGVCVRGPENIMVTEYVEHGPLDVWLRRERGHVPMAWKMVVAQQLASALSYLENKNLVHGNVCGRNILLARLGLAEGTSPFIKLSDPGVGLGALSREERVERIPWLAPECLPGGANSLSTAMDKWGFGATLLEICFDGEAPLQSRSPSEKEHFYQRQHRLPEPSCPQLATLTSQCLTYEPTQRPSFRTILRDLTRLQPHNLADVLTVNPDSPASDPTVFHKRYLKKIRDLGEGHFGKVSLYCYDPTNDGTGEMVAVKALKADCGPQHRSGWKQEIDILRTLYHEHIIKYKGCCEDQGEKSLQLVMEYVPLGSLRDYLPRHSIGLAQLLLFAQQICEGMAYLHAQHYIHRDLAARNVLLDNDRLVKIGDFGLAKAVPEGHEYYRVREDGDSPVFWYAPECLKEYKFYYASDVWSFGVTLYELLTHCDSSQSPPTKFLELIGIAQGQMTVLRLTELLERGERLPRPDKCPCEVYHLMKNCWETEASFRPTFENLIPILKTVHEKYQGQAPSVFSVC
T1 sequence (P23458 whole entry): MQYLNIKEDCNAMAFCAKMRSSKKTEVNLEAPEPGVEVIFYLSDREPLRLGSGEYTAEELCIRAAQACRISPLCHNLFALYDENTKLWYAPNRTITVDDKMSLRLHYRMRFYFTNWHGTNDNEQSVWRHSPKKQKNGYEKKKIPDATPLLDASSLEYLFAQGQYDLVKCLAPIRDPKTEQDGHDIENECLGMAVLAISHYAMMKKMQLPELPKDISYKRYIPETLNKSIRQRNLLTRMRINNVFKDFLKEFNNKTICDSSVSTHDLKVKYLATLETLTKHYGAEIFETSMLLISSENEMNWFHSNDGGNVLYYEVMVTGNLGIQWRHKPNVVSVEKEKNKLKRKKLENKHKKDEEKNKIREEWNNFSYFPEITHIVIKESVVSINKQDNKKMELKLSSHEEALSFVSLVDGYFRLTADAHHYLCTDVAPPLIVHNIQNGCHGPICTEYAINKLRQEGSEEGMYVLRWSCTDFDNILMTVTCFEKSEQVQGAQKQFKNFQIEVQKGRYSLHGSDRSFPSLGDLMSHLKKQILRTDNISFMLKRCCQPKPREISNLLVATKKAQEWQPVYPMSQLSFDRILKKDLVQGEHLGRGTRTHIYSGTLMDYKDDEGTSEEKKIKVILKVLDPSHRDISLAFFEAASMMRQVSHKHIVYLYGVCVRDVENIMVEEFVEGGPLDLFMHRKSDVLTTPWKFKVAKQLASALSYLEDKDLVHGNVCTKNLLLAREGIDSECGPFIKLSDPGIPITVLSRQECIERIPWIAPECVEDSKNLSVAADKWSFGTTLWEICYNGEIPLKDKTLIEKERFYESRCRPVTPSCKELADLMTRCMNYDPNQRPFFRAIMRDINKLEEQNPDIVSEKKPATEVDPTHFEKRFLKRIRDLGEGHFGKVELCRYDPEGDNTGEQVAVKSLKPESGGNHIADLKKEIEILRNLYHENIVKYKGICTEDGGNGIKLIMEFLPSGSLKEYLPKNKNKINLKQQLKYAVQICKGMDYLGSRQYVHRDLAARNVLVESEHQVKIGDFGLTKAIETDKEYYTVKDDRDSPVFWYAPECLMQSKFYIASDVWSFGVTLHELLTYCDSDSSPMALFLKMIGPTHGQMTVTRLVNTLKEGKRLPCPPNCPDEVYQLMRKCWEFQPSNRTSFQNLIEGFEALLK
T2 sequence (O60674 whole entry): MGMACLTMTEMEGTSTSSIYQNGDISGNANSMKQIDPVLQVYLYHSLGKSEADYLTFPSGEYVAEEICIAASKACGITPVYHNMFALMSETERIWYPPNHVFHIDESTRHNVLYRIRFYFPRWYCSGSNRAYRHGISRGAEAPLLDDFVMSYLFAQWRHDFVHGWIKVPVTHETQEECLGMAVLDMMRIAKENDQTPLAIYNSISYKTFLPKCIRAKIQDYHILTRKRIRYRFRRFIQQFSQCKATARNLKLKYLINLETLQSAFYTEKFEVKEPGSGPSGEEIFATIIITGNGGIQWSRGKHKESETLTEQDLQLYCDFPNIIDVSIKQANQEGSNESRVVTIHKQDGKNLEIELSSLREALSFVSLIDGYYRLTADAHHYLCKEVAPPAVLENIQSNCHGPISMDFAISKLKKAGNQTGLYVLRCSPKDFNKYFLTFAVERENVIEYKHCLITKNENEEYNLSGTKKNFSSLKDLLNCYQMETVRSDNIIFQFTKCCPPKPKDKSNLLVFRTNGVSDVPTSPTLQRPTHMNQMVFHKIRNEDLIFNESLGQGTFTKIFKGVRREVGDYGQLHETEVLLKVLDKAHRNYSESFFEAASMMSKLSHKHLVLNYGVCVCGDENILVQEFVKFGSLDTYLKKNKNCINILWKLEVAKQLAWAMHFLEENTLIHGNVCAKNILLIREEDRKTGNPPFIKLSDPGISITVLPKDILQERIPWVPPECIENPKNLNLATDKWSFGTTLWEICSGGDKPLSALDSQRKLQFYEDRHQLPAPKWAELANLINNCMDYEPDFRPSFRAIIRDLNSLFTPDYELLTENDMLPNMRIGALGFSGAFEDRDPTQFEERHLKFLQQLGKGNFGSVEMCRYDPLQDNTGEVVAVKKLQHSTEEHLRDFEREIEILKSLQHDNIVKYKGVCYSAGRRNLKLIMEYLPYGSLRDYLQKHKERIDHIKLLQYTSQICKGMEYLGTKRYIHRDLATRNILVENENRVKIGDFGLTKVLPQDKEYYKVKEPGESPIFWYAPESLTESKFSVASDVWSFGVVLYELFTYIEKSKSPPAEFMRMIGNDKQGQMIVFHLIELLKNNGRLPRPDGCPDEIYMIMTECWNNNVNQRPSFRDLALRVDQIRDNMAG

Row | SMILES | IC50 (JAK1) | IC50 (JAK2) | IC50 (JAK3) | IC50 (TYK2) | Selectivity ratio over JAK2, Tyk2 (TYK2) | Selectivity ratio over JAK2, JAK1 (JAK1) | Selectivity ratio over JAK2, JAK3 (JAK3)
1 | Cl.Cn1cc(Nc2ncc(F)c(NC[C@H]3CCCN3S(C)(=O)=O)n2)cn1 [Example 74, (R)-5-fluoro-N^2-(1-methyl-1H-pyrazol-4-yl)-N^4-((1-(methylsulfonyl)pyrrolidin-2-yl)methyl)pyrimidine-2,4-diamine Hydrochloride] | 0.1 to 1 µM | 1 to 10 µM | 0.1 to 1 µM | < 0.1 µM | Tyk2 = 50 | – | –
2 | CC(=O)N1CC[C@@H](CNc2nc(Nc3cnn(C)c3)ncc2Cl)C1 [Example 26, (S)-1-(3-(((5-chloro-2-((1-methyl-1H-pyrazol-4-yl)amino)pyrimidin-4-yl)amino)methyl)pyrrolidin-1-yl)ethanone] | 0.1 to 1 µM | 1 to 10 µM | 1 to 10 µM | 0.1 to 1 µM | – | JAK1 = 9 | –
3 | CCNC(=O)N1CCC[C@@H]1CNc1nc(Nc2cnn(C)c2)ncc1Cl [Example 88, (R)-2-(((5-chloro-2-((1-methyl-1H-pyrazol-4-yl)amino)pyrimidin-4-yl)amino)methyl)-N-ethylpyrrolidine-1-carboxamide] | 0.1 to 1 µM | 0.1 to 1 µM | 0.1 to 1 µM | < 0.1 µM | Tyk2 = 35 | – | –
4 | CC(=O)N1CCC[C@H]1CNc1nc(Nc2cnn(C)c2)ncc1Cl [Example 8, (S)-1-(2-(((5-chloro-2-((1-methyl-1H-pyrazol-4-yl)amino)pyrimidin-4-yl)amino)methyl)pyrrolidin-1-yl)ethanone] | 0.1 to 1 µM | 1 to 10 µM | 0.1 to 1 µM | 0.1 to 1 µM | – | JAK1 = 17 | –
5 | CC(=O)N1CCC[C@@H]1CNc1nc(Nc2cnn(C)c2)ncc1Cl [Example 1, (R)-1-(2-(((5-chloro-2-((1-methyl-1H-pyrazol-4-yl)amino)pyrimidin-4-yl)amino)methyl)pyrrolidin-1-yl)ethanone] | 0.1 to 1 µM | 1 to 10 µM | < 0.1 µM | < 0.1 µM | – | JAK1 = 8 | –
6 | Cn1cc(Nc2ncc(F)c(NC[C@H]3CCCN3C(=O)CCC#N)n2)cn1 [Example 114, (R)-4-(2-(((5-fluoro-2-((1-methyl-1H-pyrazol-4-yl)amino)pyrimidin-4-yl)amino)methyl)pyrrolidin-1-yl)-4-oxobutanenitrile] | < 0.1 µM | 1 to 10 µM | 0.1 to 1 µM | < 0.1 µM | Tyk2 = 103 | – | –
7 | Cc1cnc(Nc2cnn(C)c2)nc1NC[C@@H]1C[C@H](F)CN1C(=O)CC#N [Example 103, 3-((2S,4S)-4-fluoro-2-(((5-methyl-2-((1-methyl-1H-pyrazol-4-yl)amino)pyrimidin-4-yl)amino)methyl)pyrrolidin-1-yl)-3-oxopropanenitrile] | < 0.1 µM | > 10 µM | 0.1 to 1 µM | 0.1 to 1 µM | – | JAK1 = 150 | –
8 | Cn1cc(Nc2nccc(NC[C@H]3CCCN3C(=O)CC#N)n2)cn1 [Example 95, (R)-3-(2-(((2-((1-methyl-1H-pyrazol-4-yl)amino)pyrimidin-4-yl)amino)methyl)pyrrolidin-1-yl)-3-oxopropanenitrile] | 0.1 to 1 µM | 1 to 10 µM | 1 to 10 µM | < 0.1 µM | Tyk2 = 138 | – | –
9 | Cn1cc(Nc2ncc(Cl)c(NC[C@@H]3C[C@H](F)CN3CCCS(C)(=O)=O)n2)cn1 [Example 132, 5-chloro-N^4-(((2S,4S)-4-fluoro-1-(3-(methylsulfonyl)propyl)pyrrolidin-2-yl)methyl)-N^2-(1-methyl-1H-pyrazol-4-yl)pyrimidine-2,4-diamine] | < 0.1 µM | 1 to 10 µM | 0.1 to 1 µM | < 0.1 µM | – | JAK1 = 100 | –
10 | Cc1cnc(Nc2cnn(CC(F)F)c2)nc1NC[C@H]1CCN(CCS(C)(=O)=O)C1 [Example 127, (R)—N^2-(1-(2,2-difluoroethyl)-1H-pyrazol-4-yl)-5-methyl-N^4-((1-(2-(methylsulfonyl)ethyl)pyrrolidin-3-yl)methyl)pyrimidine-2,4-diamine] | < 0.1 µM | 1 to 10 µM | 0.1 to 1 µM | 0.1 to 1 µM | – | JAK1 = 83 | –
11 | Cn1cc(Nc2ncc(Cl)c(NC[C@H]3CCCN3CCO)n2)cn1 [Example 48, (R)-2-(2-((5-chloro-2-(1-methyl-1H-pyrazol-4-ylamino)pyrimidin-4-ylamino)methyl)pyrrolidin-1-yl)ethanol] | 0.1 to 1 µM | 1 to 10 µM | 0.1 to 1 µM | 0.1 to 1 µM | – | – | JAK3 = 52
12 | Cn1cc(Nc2ncc(Cl)c(NC[C@H]3CCCN3S(C)(=O)=O)n2)cn1 [Example 5, (R)-5-chloro-N^2-(1-methyl-1H-pyrazol-4-yl)-N^4-((1-(methylsulfonyl)pyrrolidin-2-yl)methyl)pyrimidine-2,4-diamine] | < 0.1 µM | 0.1 to 1 µM | < 0.1 µM | < 0.1 µM | – | JAK1 = 13 | –
13 | Cc1cnc(Nc2cnn(C)c2)nc1NC[C@@H]1CCCN1 [Example 73, (S)-5-methyl-N^2-(1-methyl-1H-pyrazol-4-yl)-N^4-(pyrrolidin-2-ylmethyl)pyrimidine-2,4-diamine Hydrochloride] | 1 to 10 µM | > 10 µM | 1 to 10 µM | 1 to 10 µM | – | – | –
14 | CCS(=O)(=O)N1CCC[C@@H]1CNc1nc(Nc2cnn(C)c2)ncc1Cl [Example 51, (R)-5-chloro-N^4-((1-(ethylsulfonyl)pyrrolidin-2-yl)methyl)-N^2-(1-methyl-1H-pyrazol-4-yl)pyrimidine-2,4-diamine] | < 0.1 µM | 0.1 to 1 µM | < 0.1 µM | < 0.1 µM | Tyk2 = 14 | – | –
15 | Cc1cnc(Nc2cnn(C)c2)nc1NC[C@H]1CCCN1C(=O)CC#N [Example 109, (R)-3-(2-(((5-methyl-2-((1-methyl-1H-pyrazol-4-yl)amino)pyrimidin-4-yl)amino)methyl)pyrrolidin-1-yl)-3-oxopropanenitrile] | < 0.1 µM | 0.1 to 1 µM | 0.1 to 1 µM | < 0.1 µM | Tyk2 = 69 | – | –
16 | Cc1cnc(Nc2cnn(C)c2)nc1NC[C@@H]1C[C@H](F)CN1C(=O)CCC#N [Example 104, 4-((2S,4S)-4-fluoro-2-(((5-methyl-2-((1-methyl-1H-pyrazol-4-yl)amino)pyrimidin-4-yl)amino)methyl)pyrrolidin-1-yl)-4-oxobutanenitrile] | < 0.1 µM | 1 to 10 µM | 0.1 to 1 µM | < 0.1 µM | – | JAK1 = 96 | –
17 | CS(=O)(=O)N1CCCC[C@H]1CNc1nc(Nc2cnn(CCO)c2)ncc1Cl [Example 37, (S)-2-(4-((5-chloro-4-(((1-(methylsulfonyl)piperidin-2-yl)methyl)amino)pyrimidin-2-yl)amino)-1H-pyrazol-1-yl)ethanol] | < 0.1 µM | 1 to 10 µM | < 0.1 µM | 0.1 to 1 µM | – | – | JAK3 = 64
18 | Cn1cc(Nc2ncc(Cl)c(NC[C@@H]3CCCN3S(C)(=O)=O)n2)cn1 [Example 12, (S)-5-chloro-N^2-(1-methyl-1H-pyrazol-4-yl)-N^4-((1-(methylsulfonyl)pyrrolidin-2-yl)methyl)pyrimidine-2,4-diamine] | < 0.1 µM | 0.1 to 1 µM | < 0.1 µM | < 0.1 µM | – | JAK1 = 12 | –
